The values below are quoted from earlier work in patent US20150313913A1, “POSITIVE ALLOSTERIC MODULATORS OF THE GABA-A RECEPTOR IN THE TREATMENT OF AUTISM” (UNIVERSITY OF WASHINGTON THROUGH ITS CENTER FOR …, priority 2013, published 2015).

Each structure is given as a SMILES string. Read-outs that look alike come from different tables or passages of the source.

The series has as its system GABA-A receptor. To be noted: cited from earlier work; for Effect at GABA-A receptor: Table 1, exemplary benzodiazepines.
The mark [1] stands for this setting: Table 4, exemplary non-BDZ GABA-A enhancers.

Regarding `O=C1CN2CCOC2(c2ccccc2F)c2cc(Cl)ccc2N1CCO` (stereo not drawn) [Flutazolam], the “Effect at GABA-A receptor” value is “Agonist”.
As to `Cc1ncc2n1-c1ccc(Cl)cc1C(c1ccccc1Cl)=NC2` [Climazolam], the “Effect at GABA-A receptor” value is reported as “Agonist”.
For the molecule `CC1CN2CC(=O)Nc3ccc(Cl)cc3C2(c2ccccc2)O1` (stereo not drawn) [Oxazolam], the “Effect at GABA-A receptor” value is “Agonist”.
For `CCCN(CCC)C(=O)Cc1c(-c2ccc(Cl)cc2)nc2ccc(Cl)cn12` [Alpidem], the “Effect at GABA receptor” value (Table 2, exemplary SS-PAMs) was “Agonist α3 subtype selective”.
In the case of `c1ccc(-c2cc(CCC3CCNCC3)c3ccccc3n2)cc1` [Pipequaline], the “Effect at GABA receptor” value under setting [1] is recorded as “Partial agonist”.
Take `Fc1ccccc1C1=NCCN(CC(F)(F)F)c2ccc(Cl)cc21` [Fletazepam]: the “Effect at GABA-A receptor” value is “Agonist”.
Consider `Cn1c2ccc(F)cc2c2c(C(=O)N3CCCC3)cn(-c3ccccc3)c(=O)c21` [SL-651,498], for which the “Effect at GABA receptor” value (Table 2, exemplary SS-PAMs) was “Full agonist α2,3 selective”.
Turning to `CCC(=O)N1CCN(C(=O)O[C@H]2C3SCCSC3C(=O)N2c2ccc3ccc(Cl)nc3n2)CC1` (stereo partly drawn) [Suproclone], the “Effect at GABA receptor” value under setting [1] was “Agonist”.
`O=C(c1ccccn1)c1cnn2c(-c3ccncc3)ccnc12` [Ocinaplon]: the “Effect at GABA receptor” value under setting [1] is given as “Agonist”.
With `O=C1CN2CCOC2(c2ccccc2F)c2cc(Br)ccc2N1` (stereo not drawn) [Haloxazolam], the “Effect at GABA-A receptor” value is “Agonist”.
With `CCc1c(OC)nc2nc(-c3noc(C)n3)cn2c1C` [Fasiplon], the “Effect at GABA receptor” value under setting [1] is “Agonist”.
As for `C[C@@H]1N=C(c2ccccc2Cl)c2cc([N+](=O)[O-])ccc2NC1=O` [Meclonazepam], the “Effect at GABA-A receptor” value is “Agonist”.
For `O=C1CN=C(c2ccccc2F)c2cc(Cl)ccc2N1CC(O)CO` (stereo not drawn) [Proflazepam], the “Effect at GABA-A receptor” value is given as “Agonist”.
For `CCOC(=O)C1N=C(c2ccccc2Cl)c2cc(Cl)ccc2NC1=O` (stereo not drawn) [Ethyl dirazepate], the “Effect at GABA-A receptor” value is reported as “Agonist”.
`CCOC(=O)c1ncc2[nH]c3ccc(OCc4ccccc4)cc3c2c1COC` [ZK-93423]: the “Effect at GABA receptor” value under setting [1] is listed as “Agonist”.
As for `CN1C(=O)CC(=O)N(c2ccccc2)c2cc(C(F)(F)F)ccc21` [Triflubazam], the “Effect at GABA-A receptor” value was “Agonist”.
For the molecule `CCS(=O)(=O)CCN1C(=O)CN=C(c2ccccc2F)c2cc(Cl)ccc21` [Elfazepam], the “Effect at GABA-A receptor” value is listed as “Agonist”.
`CC(C)(O)c1ccc2c(c1)ncn2-c1cccc(-c2ccccc2C#N)c1` [NS-11394]: the “Effect at GABA receptor” value (Table 2, exemplary SS-PAMs) is “Agonist α3,5 subtype selective”.
On to `CCn1nc(C)c2c1C(c1ccccc1)=NCC(=O)N2` [Ripazepam], for which the “Effect at GABA-A receptor” value is given as “Agonist”.
As to `O=C(O)C1N=C(c2ccccc2)c2cc([N+](=O)[O-])ccc2NC1=O` (stereo not drawn) [Nitrazepate], the “Effect at GABA-A receptor” value is “Agonist”.
Turning to `COCc1c(C(=O)OC(C)C)ncc2[nH]c3cccc(Cc4ccc(Cl)cc4)c3c12` [Gedocarnil], the “Effect at GABA receptor” value under setting [1] was “Agonist”.
As to `CN1C(=O)C(O)N=C(c2ccccc2F)c2cc(Cl)ccc21` (stereo not drawn) [Flutemazepam], the “Effect at GABA-A receptor” value is reported as “Agonist”.
In the case of `COCc1c(C(=O)OC(C)C)ncc2[nH]c3ccc(OCc4ccccc4)cc3c12` [Abecarnil], the “Effect at GABA receptor” value under setting [1] was “Partial agonist”.
For `CC#CCOC(=O)c1c(C)nc2sc3c(c2c1N)CCC(O)C3` (stereo not drawn) [SB-205,384], the “Effect at GABA receptor” value (Table 2, exemplary SS-PAMs) is “Agonist α3,5,6 subtype selective”.
In the case of `O=C1COC(N2CCN=C(c3ccccc3Cl)c3cc(Cl)ccc32)=N1` [Reclazepam], the “Effect at GABA-A receptor” value was “Agonist”.
Take `C=CCONC1=Nc2ccc(Cl)cc2C(c2ccccc2Cl)=NC1` [Uldazepam]: the “Effect at GABA-A receptor” value is “Agonist”.
Turning to `Cc1ccc(S(=O)(=O)N2CCc3ccccc3[C@@H]2[C@@H]2CCC(=O)O2)cc1` [ROD-188], the “Effect at GABA receptor” value under setting [1] is “Agonist”.
As for `C#Cc1ccc2c(c1)C(c1ccccc1F)=N[C@H](C)c1c(C(=O)OCC)ncn1-2` [SH-053-R-CH3-2′F], the “Effect at GABA-A receptor” value is “Agonist”.
`COc1cc2c(cc1OC)C(c1ccc(N)cc1)=NN=C(C)C2` [Nerisopam]: the “Effect at GABA-A receptor” value was “Agonist”.
In the case of `CN1CCN(C(=O)OC2C3=C(SCCS3)C(=O)N2c2ccc3ccc(Cl)nc3n2)CC1` (stereo not drawn) [Suriclone], the “Effect at GABA receptor” value under setting [1] was “Agonist”.
Take `O=C1CN=C(c2ccccc2)c2cc(Cl)ccc2N1CCOCC1CC1` [Iclazepam]: the “Effect at GABA-A receptor” value was “Agonist”.
On to `Clc1ccccc1C1=NCc2nnc(C3CCCCC3)n2-c2sc(Br)cc21` [Ciclotizolam], for which the “Effect at GABA-A receptor” value is listed as “Partial Agonist Low efficacy”.
As to `CCn1ncnc1COc1nn2c(-c3ccccc3F)nnc2cc1C(C)(C)C` [TPA-023, 7-(1,1-dimethylethyl)-6-(2-ethyl-2H-1,2,4-triazol-3-ylmethoxy)-3-(2-fluorophenyl)-1,2,4-triazolo[4,3-b]pyridazine], for the setting “Table 2, exemplary SS-PAMs”, the “Effect at GABA receptor” value is reported as “Partial agonist at α2,3 subunits Antagonist at α1,5 subunits”.
`CC(C)CCC(=O)CC1c2ccccc2C(=O)N1c1ccc2ccc(Cl)nc2n1` (stereo not drawn) [Pagoclone]: the “Effect at GABA receptor” value (Table 2, exemplary SS-PAMs) is recorded as “Partial agonist α2,3 selective”.
Take `Clc1ccc2c(n1)C(c1ccccc1Cl)=NCc1nncn1-2` [Zapizolam]: the “Effect at GABA-A receptor” value is given as “Agonist”.
Take `CCO/N=C(\C)c1ccc2c(c1)ncn2-c1cccc(-c2cccnc2)c1` [NS-2710]: the “Effect at GABA receptor” value (Table 2, exemplary SS-PAMs) is given as “Partial agonist α2,3 subtype selective”.
As to `O=C1Nc2ccc(Cl)nc2C(c2ccccc2Cl)=NC1O` (stereo not drawn) [Lopirazepam], the “Effect at GABA-A receptor” value was “Agonist Short- acting”.
Turning to `CN1C(=O)CN=C(C2=CCCCC2)c2cc([N+](=O)[O-])ccc21` [Menitrazepam], the “Effect at GABA-A receptor” value was “Agonist”.
For the molecule `O=c1c2cnc3ccccc3c2[nH]n1-c1ccc(Cl)cc1` [CGS-9896], the “Effect at GABA receptor” value under setting [1] was “Agonist”.
Regarding `CCOC(=O)N1CCC(=O)N(c2ccccc2)c2cc(Cl)ccc21` [Arfendazam], the “Effect at GABA-A receptor” value is given as “Partial agonist”.
On to `CC(=O)N(C)c1cc(-c2ccnc3c(C(=O)c4cccs4)cnn23)ccc1F` [Lorediplon], for which the “Effect at GABA receptor” value under setting [1] was “Agonist”.
Regarding `CCc1c(OC)nc2nc(C(=O)c3ccccc3)cn2c1C` [Divaplon], the “Effect at GABA receptor” value under setting [1] is “Partial agonist”.
As to `Cc1cc2c(N3CCCC3)nc(N3CCCC3)nc2n1C` [U-89843A], the “Effect at GABA receptor” value (Table 2, exemplary SS-PAMs) is given as “Agonist at α1,3,6 subunits”.
As to `CN1C(=O)CN=C(c2ccccc2F)c2cc(Cl)ccc21` [Fludiazepam], the “Effect at GABA-A receptor” value is “Agonist”.
For `COc1ccc(-n2[nH]c3c4c(ncc3c2=O)CCCCC4)cc1` [CGS-20625], the “Effect at GABA receptor” value under setting [1] was “Agonist”.
Regarding `CCOCN1C2=C(C(=O)Nc3ccccc3F)C(=O)CCN2c2ccc(F)cc21` [RWJ-51204], the “Effect at GABA receptor” value under setting [1] is “Partial agonist”.
Consider `CN1C(=S)CN=C(c2ccccc2)c2cc(Cl)ccc21` [Sulazepam], for which the “Effect at GABA-A receptor” value was “Agonist”.
In the case of `O=C1C(O)N=C(c2ccccc2F)c2cc(Cl)ccc2N1CCO` (stereo not drawn) [Doxefazepam], the “Effect at GABA-A receptor” value is “Agonist”.
`O=C1CCNc2ccc(Cl)cc2N1c1ccccc1` [Lofendazam]: the “Effect at GABA-A receptor” value is on record as “Agonist”.
As for `COc1cc2c(cc1OC)C(c1cccc(Cl)c1)=NN=C(C)C2` [Girisopam], the “Effect at GABA-A receptor” value is “Agonist”.
Take `COCC1CN=C(c2ccccc2Cl)c2cc(Br)ccc2N1C` (stereo not drawn) [Metaclazepam]: the “Effect at GABA-A receptor” value is reported as “Agonist”.
